# Source: publication PMC11642981, “Bioguided Identification of Polymethoxyflavones as Novel Vascular CaV1.2 Channel Blockers from Citrus Peel” (Molecules, 2024)
# Like-named read-outs stand apart in the source and are kept apart here.
# Experiments:
# Type in all cases: cell-based
# [1] = target: T1, CaV1.2 channel (α1C subunit) (Rattus norvegicus, UniProt P22002); experiment: whole-cell patch-clamp, complete block of IBa1.[…] at […]
# T1 construct: gene Cacna1c; native channel in freshly isolated rat tail artery myocytes
# T1 sequence (P22002 whole entry): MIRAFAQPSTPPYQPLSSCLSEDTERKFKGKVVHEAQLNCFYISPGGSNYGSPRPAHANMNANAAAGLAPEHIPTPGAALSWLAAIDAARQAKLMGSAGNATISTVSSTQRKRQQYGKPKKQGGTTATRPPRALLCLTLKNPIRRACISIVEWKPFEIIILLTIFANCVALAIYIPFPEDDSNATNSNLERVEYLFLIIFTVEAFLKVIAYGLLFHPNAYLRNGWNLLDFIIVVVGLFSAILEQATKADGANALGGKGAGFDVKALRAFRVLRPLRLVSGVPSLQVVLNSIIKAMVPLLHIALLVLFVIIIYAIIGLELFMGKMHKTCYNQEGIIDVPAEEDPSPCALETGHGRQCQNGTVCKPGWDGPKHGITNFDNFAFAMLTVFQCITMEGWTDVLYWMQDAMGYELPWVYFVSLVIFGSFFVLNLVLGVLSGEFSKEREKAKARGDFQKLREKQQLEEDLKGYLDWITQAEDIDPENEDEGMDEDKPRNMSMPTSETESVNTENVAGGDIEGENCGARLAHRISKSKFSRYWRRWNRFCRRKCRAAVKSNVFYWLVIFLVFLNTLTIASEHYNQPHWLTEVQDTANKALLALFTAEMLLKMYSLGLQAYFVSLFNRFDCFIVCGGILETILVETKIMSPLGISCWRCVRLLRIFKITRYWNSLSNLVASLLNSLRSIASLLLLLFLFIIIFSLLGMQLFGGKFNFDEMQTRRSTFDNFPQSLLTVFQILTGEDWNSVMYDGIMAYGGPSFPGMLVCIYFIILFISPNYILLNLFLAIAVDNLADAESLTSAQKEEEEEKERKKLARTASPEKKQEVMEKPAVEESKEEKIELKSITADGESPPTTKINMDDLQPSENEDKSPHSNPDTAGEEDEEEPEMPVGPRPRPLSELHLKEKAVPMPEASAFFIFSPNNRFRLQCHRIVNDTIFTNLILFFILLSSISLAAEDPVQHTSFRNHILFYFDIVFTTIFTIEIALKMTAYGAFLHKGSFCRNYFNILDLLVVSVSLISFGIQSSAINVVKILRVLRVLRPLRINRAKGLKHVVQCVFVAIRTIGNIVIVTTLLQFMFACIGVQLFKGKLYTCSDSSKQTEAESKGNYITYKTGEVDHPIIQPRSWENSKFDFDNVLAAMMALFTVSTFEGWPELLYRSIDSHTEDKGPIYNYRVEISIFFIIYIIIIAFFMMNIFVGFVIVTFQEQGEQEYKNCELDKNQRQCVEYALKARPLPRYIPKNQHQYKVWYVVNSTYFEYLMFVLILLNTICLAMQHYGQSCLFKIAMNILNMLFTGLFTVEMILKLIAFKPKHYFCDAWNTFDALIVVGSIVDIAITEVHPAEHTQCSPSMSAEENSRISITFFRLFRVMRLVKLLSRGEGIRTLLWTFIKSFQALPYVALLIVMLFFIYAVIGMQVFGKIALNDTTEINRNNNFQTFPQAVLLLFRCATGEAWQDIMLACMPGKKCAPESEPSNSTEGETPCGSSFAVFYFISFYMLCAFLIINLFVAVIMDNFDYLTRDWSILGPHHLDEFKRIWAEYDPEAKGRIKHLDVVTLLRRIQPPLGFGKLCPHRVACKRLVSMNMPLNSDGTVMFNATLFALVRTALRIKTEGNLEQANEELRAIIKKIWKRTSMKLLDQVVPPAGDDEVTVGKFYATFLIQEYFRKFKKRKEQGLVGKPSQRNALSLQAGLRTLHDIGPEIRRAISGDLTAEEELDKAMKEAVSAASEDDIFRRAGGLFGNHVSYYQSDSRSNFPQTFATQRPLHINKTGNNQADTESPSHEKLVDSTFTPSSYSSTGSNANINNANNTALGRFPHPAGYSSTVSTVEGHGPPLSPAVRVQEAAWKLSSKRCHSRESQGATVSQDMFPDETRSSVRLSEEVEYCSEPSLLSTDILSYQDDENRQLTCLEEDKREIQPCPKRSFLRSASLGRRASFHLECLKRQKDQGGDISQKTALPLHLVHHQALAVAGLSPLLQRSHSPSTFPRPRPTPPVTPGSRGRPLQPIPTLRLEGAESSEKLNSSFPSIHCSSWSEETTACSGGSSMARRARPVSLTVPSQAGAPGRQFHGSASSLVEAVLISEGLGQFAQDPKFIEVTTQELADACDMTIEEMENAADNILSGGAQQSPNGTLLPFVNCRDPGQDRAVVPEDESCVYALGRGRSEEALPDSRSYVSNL
# [2] = target: T1, CaV1.2 channel (α1C subunit); experiment: whole-cell patch-clamp, Ba2+ current (IBa1.[…]); conditions: read-out: % reduction in current amplitude at 100 μM
# [3] = target: T1, CaV1.2 channel (α1C subunit); experiment: whole-cell patch-clamp, Ba2+ current (IBa1.[…])
structure (smiles),measurement,setting,value
COC(=O)C1=C(C)NC(C)=C(C(=O)OC)C1c1ccccc1[N+](=O)[O-] [nifedipine],"whole-cell patch-clamp, complete block of IBa1.2 at 10 μM",[1],10 µM (completely blocked IBa1.2)
COc1ccc(-c2cc(=O)c3c(OC)c(OC)c(OC)c(OC)c3o2)cc1OC [nobiletin],inhibition at 100 µM,[2],50%
COc1ccc(-c2cc(=O)c3c(OC)c(OC)c(OC)cc3o2)cc1 [scutellarein tetramethyl ether],IC50,[3],~33.1 µM
COc1ccc(-c2cc(=O)c3c(OC)c(OC)c(OC)cc3o2)cc1OC [sinensetin],inhibition at 100 µM,[2],50%
COc1ccc(-c2cc(=O)c3c(OC)c(OC)c(OC)c(OC)c3o2)cc1 [tangeretin],IC50,[3]; read-out: IC50 (converted),~66.1 µM
